Experimental data published in article PMC11775380, “Discovery of Novel Nav1.7-Selective Inhibitors with the 1H-Indole-3-Propionamide Scaffold for Effective Pain Relief” (Research, 2025).

Columns and labels:
mice = details: mouse, in vivo
Experimental: VGSC inhibitors required credible subtype selectivity to void side effects caused by binding to nontarget subtypes. At a concentration of 1 μM, the inhibitory rates of WN2-R on hNav1.2, hNav1.3, hNav1.4, hNav1.5, mNav1.6, and hNav1.8 were determined (n = 3 to 6, Fig. 7A). […] To further evaluate the drug safety profile, high-dose acute toxicity experiments were conducted. Mice were administered a high dose of 30 mg/kg WN2-R through i.p. administration. The rotarod test, forced-swim test, and open field test were used to explore the effect of high-dose WN2-R on the motor ability of mice (n = 4). The rotarod test evaluated the drug's effect on motor coordination, the forced-swim test examined its impact on the overall motor system, and the open field test assessed the drug's influence on the motor and nervous systems.

Nav1.7 N1551A = target: T1, Nav1.7 N1551A (Homo sapiens, UniProt Q15858, N1551A); assay: Single site-directed mutagenesis, inhibition by patch clamp; assay type: cell-based; details: 1 μM
T1 construct: expressed in transfected cells; host or cells: HEK293T
T1 sequence (Q15858 whole entry N1551A): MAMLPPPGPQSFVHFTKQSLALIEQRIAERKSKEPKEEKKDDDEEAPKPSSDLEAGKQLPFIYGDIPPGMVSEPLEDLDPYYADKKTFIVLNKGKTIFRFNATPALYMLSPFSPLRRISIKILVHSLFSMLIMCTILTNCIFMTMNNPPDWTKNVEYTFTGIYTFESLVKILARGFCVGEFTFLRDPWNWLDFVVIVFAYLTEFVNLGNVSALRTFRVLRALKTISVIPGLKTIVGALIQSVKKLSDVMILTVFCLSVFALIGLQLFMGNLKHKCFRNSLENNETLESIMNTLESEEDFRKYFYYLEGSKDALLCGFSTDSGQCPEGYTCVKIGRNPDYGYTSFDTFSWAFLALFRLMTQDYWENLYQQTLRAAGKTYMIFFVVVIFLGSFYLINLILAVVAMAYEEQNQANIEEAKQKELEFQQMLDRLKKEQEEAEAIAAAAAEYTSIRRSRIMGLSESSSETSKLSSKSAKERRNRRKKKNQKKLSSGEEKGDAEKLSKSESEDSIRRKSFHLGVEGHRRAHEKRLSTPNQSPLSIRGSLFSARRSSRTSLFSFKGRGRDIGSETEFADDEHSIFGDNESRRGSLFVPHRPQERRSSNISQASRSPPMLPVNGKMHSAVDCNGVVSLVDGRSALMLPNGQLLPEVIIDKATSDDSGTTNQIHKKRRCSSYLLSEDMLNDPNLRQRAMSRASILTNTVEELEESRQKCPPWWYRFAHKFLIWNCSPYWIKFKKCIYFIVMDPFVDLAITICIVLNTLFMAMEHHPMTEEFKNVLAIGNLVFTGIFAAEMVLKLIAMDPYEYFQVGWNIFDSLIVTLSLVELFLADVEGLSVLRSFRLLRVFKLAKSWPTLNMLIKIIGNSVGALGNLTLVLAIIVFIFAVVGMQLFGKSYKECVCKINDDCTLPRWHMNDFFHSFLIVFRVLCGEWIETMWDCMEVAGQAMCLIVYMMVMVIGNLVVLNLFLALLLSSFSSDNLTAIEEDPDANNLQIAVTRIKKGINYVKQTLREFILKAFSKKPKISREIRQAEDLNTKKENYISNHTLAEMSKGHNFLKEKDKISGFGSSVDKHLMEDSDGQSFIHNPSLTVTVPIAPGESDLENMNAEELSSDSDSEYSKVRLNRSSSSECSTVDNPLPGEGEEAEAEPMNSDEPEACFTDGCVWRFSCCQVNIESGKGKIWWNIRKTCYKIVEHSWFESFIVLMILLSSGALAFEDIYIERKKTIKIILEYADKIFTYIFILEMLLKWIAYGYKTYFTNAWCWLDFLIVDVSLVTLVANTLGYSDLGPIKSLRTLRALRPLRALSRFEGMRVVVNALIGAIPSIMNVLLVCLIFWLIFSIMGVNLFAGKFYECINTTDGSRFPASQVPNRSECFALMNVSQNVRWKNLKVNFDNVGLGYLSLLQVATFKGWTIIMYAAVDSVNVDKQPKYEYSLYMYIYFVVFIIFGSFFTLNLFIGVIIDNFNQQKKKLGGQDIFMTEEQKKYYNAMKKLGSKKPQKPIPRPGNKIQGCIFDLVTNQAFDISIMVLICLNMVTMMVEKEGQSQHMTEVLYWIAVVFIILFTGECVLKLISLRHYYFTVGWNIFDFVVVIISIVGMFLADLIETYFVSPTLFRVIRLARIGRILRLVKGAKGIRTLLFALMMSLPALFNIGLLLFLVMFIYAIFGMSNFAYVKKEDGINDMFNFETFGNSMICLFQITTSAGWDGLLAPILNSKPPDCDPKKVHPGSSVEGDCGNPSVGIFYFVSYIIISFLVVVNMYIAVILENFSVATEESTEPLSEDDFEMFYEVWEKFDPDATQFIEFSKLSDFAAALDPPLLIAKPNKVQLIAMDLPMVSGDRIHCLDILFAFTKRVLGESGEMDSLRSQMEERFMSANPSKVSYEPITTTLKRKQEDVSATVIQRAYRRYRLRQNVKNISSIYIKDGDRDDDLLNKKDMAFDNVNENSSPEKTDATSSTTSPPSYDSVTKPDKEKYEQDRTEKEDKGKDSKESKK
T1 sequence (Q07699 19-218 partner): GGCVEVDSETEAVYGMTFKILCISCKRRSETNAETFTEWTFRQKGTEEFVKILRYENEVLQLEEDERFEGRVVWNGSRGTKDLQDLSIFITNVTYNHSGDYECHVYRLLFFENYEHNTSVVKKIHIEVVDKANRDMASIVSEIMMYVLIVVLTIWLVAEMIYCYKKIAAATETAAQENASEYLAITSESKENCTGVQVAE
T1 sequence (O60939 30-215 partner): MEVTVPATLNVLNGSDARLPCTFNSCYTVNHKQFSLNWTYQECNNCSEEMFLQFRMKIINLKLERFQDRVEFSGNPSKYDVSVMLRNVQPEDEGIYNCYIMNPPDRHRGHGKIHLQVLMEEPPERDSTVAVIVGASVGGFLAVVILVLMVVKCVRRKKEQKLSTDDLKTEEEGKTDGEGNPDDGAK
Experimental: (§1) The amino acids depicted in Fig. 4C were individually mutated to alanine or glycine to perform single site-directed mutagenesis. Subsequently, the inhibition rates of these mutations against WN2-R were measured at a concentration of 1 μM (Fig. 4D). […] While single site-directed mutagenesis did affect the antagonistic activity of WN2-R, it did so to a limited extent, as the presumed induced-fit effect typically arises from the concerted movement of multiple residues.
(§2) Whole-cell patch-clamp recordings were conducted at 25 ± 2 °C, utilizing an EPC 10USB patch-clamp amplifier (HEKA Elektronik, Lambrecht, Germany). Pipettes, with access resistance between 2.0 and 3.0 MΩ, were pulled from borosilicate glass capillary tubes using a 2-step vertical microelectrode puller (PC-10, Narishige Group, Tokyo, Japan). Voltage-clamp recordings were obtained with PatchMaster software v2 × 73 (HEKA Elektronik) 5 min after establishing whole-cell configuration, sampled at 20 kHz, and filtered at 5 kHz. To minimize voltage errors, 80% series resistance compensation was applied. Pipettes were filled with 140 mM CsF, 10 mM NaCl, 1 mM EGTA, and 10 mM HEPES (pH=7.4, adjusted with CsOH). The external solution contained 140 mM NaCl, 2 mM CaCl2, 1 mM MgCl2, 5 mM KCl, 10 mM HEPES, and 10 mM glucose (pH=7.4, adjusted with NaOH). IC50 values were determined in HEK293T or ND7/23 cell lines by voltage clamping at −80 mV, followed by stepping to the V1/2 of inactivation for 8 s to facilitate compound binding.

Nav1.7 Y1548A = target: T2, Nav1.7 Y1548A (Homo sapiens, UniProt Q15858, Y1548A); assay: as above; assay type: cell-based; details: 1 μM
T2 construct: expressed in transfected cells; host or cells: HEK293T
T2 sequence (Q15858 whole entry Y1548A): as the sequence (Q15858 whole entry N1551A) above, with Y1548A, A1551N counted along it
T2 sequence (Q07699 19-218 partner): as the sequence (Q07699 19-218 partner) above
T2 sequence (O60939 30-215 partner): as the sequence (O60939 30-215 partner) above
Experimental: as §1, §2

Nav1.7 F1609A = target: T3, Nav1.7 F1609A (Homo sapiens, UniProt Q15858, F1609A); assay: as above; assay type: cell-based; details: 1 μM
T3 construct: expressed in transfected cells; host or cells: HEK293T
T3 sequence (Q15858 whole entry F1609A): as the sequence (Q15858 whole entry N1551A) above, with A1551N, F1609A counted along it
T3 sequence (Q07699 19-218 partner): as the sequence (Q07699 19-218 partner) above
T3 sequence (O60939 30-215 partner): as the sequence (O60939 30-215 partner) above
Experimental: as §1, §2

Nav1.7 M1593A = target: T4, Nav1.7 M1593A (Homo sapiens, UniProt Q15858, M1593A); assay: as above; assay type: cell-based; details: 1 μM
T4 construct: expressed in transfected cells; host or cells: HEK293T
T4 sequence (Q15858 whole entry M1593A): as the sequence (Q15858 whole entry N1551A) above, with A1551N, M1593A counted along it
T4 sequence (Q07699 19-218 partner): as the sequence (Q07699 19-218 partner) above
T4 sequence (O60939 30-215 partner): as the sequence (O60939 30-215 partner) above
Experimental: as §1, §2

Nav1.7 A1596G = target: T5, Nav1.7 A1596G (Homo sapiens, UniProt Q15858, A1596G); assay: as above; assay type: cell-based; details: 1 μM
T5 construct: expressed in transfected cells; host or cells: HEK293T
T5 sequence (Q15858 whole entry A1596G): as the sequence (Q15858 whole entry N1551A) above, with A1551N, A1596G counted along it
T5 sequence (Q07699 19-218 partner): as the sequence (Q07699 19-218 partner) above
T5 sequence (O60939 30-215 partner): as the sequence (O60939 30-215 partner) above
Experimental: as §1, §2

Nav1.7 I1612A = target: T6, Nav1.7 I1612A (Homo sapiens, UniProt Q15858, I1612A); assay: as above; assay type: cell-based; details: 1 μM
T6 construct: expressed in transfected cells; host or cells: HEK293T
T6 sequence (Q15858 whole entry I1612A): as the sequence (Q15858 whole entry N1551A) above, with A1551N, I1612A counted along it
T6 sequence (Q07699 19-218 partner): as the sequence (Q07699 19-218 partner) above
T6 sequence (O60939 30-215 partner): as the sequence (O60939 30-215 partner) above
Experimental: as §1, §2

Nav1.7 T1544A = target: T7, Nav1.7 T1544A (Homo sapiens, UniProt Q15858, T1544A); assay: as above; assay type: cell-based; details: 1 μM
T7 construct: expressed in transfected cells; host or cells: HEK293T
T7 sequence (Q15858 whole entry T1544A): as the sequence (Q15858 whole entry N1551A) above, with T1544A, A1551N counted along it
T7 sequence (Q07699 19-218 partner): as the sequence (Q07699 19-218 partner) above
T7 sequence (O60939 30-215 partner): as the sequence (O60939 30-215 partner) above
Experimental: as §1, §2

Nav1.7 R1613A = target: T8, Nav1.7 R1613A (Homo sapiens, UniProt Q15858, R1613A); assay: as above; assay type: cell-based; details: 1 μM
T8 construct: expressed in transfected cells; host or cells: HEK293T
T8 sequence (Q15858 whole entry R1613A): as the sequence (Q15858 whole entry N1551A) above, with A1551N, R1613A counted along it
T8 sequence (Q07699 19-218 partner): as the sequence (Q07699 19-218 partner) above
T8 sequence (O60939 30-215 partner): as the sequence (O60939 30-215 partner) above
Experimental: as §1, §2

Cc1ccc(Cn2cc([C@H](CC(=O)NCCN(C)C)c3ccc(F)cc3)c3ccccc32)cc1 [WN2-R]
Survival after high dose (mice): survived normally | Inhibition rate on the mutant relative to wild type (Nav1.7 N1551A): 58.9 % of WT | Effect of the mutation on antagonistic activity (Nav1.7 Y1548A): minimal impact | Effect of the mutation on antagonistic activity (Nav1.7 F1609A): minimal impact | Inhibition rate on the mutant relative to wild type (Nav1.7 M1593A): 57.1 % of WT | Effect of the mutation on antagonistic activity (Nav1.7 A1596G): exerted an influence | Inhibition rate on the mutant relative to wild type (Nav1.7 I1612A): 30.6 % of WT | Inhibition rate on the mutant relative to wild type (Nav1.7 T1544A): 60.7 % of WT | Inhibition rate on the mutant relative to wild type (Nav1.7 R1613A): 57.4 % of WT
